Results from patent US20050221381A1, “Method for isolating ligands” (priority 2002, published 2005).
Where two headings read alike, the source gives them in different places.

How the values were obtained:
[1] = system: PBMC from CMV seropositive donors; format: cell-based, human; conditions: for Frequency in screen (number of refinding/number of donors' expressing the respective HLA type): literature known class I epitopes
[2] = system: HLA-DRB1*0401-transgenic mice splenocytes; format: in vivo, mouse; set-up: key to DRB1*0401 mice total SC (T cell response) / DRB1*0401 mice CD4+ (T cell response): −: no binding/T cell response; +/−: weak binding/T cell response; +: intermediate binding/T cell response; ++: strong binding/T cell response
[3] = molecular target: T1, soluble DRB1*0401 molecules (DR4) (Homo sapiens, UniProt P01903+P01911, A100K/A169T/F76Y/I96L/K127E/L162R/M171V/N62H/P40V/Q125Y/R42H/S133A/S149N/S66Y/V115G/V209L/W38E); format: binding; set-up: key to DR4 binding: +++: high binding affinity; ++: moderate binding affinity; +: low binding affinity; −: no binding; key to Binding to DRB1 *0401: −: no binding/T cell response; +/−: weak binding/T cell response; +: intermediate binding/T cell response; ++: strong binding/T cell response
T1 construct: Soluble HLA class I A*0201 and HLA class II DRA1*0101/DRB1*0101/Ii, DRA1*0101/DRB1*0401/Ii and DRA1*0101/DRB1*0404/Ii molecules were expressed in SC-2 cells; made in house; host or cells: SC-2 cells

[4] = molecular target: T1, soluble DRB1*0401 molecules (DR4); format: binding; set-up: key: +++: high binding affinity; ++: moderate binding affinity; +: low binding affinity; −: no binding; conditions: individual pp65 15mer, SDS-stability assay
[5] = direct binding of individual peptides, SDS-stability assay, compared with YAR and HA306-318
[6] = IFN-gamma ELISpot, enriched CD4+ fraction of splenocytes of HLA-DR4 transgenic mice vaccinated with the longer peptide, ex vivo re-stimulation
[7] = IFN-gamma ELISpot, total splenocytes of HLA-DR4 transgenic mice vaccinated with the longer peptide, ex vivo re-stimulation

Sequence: HNPAVFTWPPWQAGI [Peptide 477]
- Induction of IFN-gamma secretion in T cells / PBMC from CMV seropositive donors [1]: can induce functional, IFN-gamma secreting T cells in humans

Sequence: QYSEHPTFTSQYRIQ [Peptide 362]
- DRB1*0401 mice CD4+ (T cell response) ([2]; mouse, in vivo): ++
- DRB1*0401 mice total SC (T cell response) ([2]; mouse, in vivo, sc): +

Sequence: TRATKMQVIGDQYVK [Peptide 211]
- Induction of IFN-gamma secretion in T cells / PBMC from CMV seropositive donors [1]: can induce functional, IFN-gamma secreting T cells in humans

Sequence: RKTPRVTGGGAMAGA [Peptide 415]
- Recognition by T cells in HLA context other than described [1]: recognized by T cells in a different HLA context than known before

Sequence: IDELKTNSSLLTSILTYHVV [Peptide 1235]
- DR4 binding [3, 5]: −

Sequence: QRGPQYSEHPTFTSQ [Peptide 358]
- DRB1*0401 mice CD4+ (T cell response) ([2]; mouse, in vivo): +/−
- DRB1*0401 mice total SC (T cell response) ([2]; mouse, in vivo, sc): ++

Sequence: QNLKYQEFFWDANDI [Peptide 506]
- Binding to DRB1 *0401 ([3]; soluble DRB1*0401 molecules): −
- DRB1*0401 mice CD4+ (T cell response) [2, 6]: +/−
- DRB1*0401 mice total SC (T cell response) [2, 7]: ++
- Induction of IFN-gamma secretion in T cells / PBMC from CMV seropositive donors [1]: can induce functional, IFN-gamma secreting T cells in humans

Sequence: SGVMTRGRLKAESTV [Peptide 448]
- Binding to DRB1 *0401 ([3]; soluble DRB1*0401 molecules): −
- DRB1*0401 mice CD4+ (T cell response) [2, 6]: −
- DRB1*0401 mice total SC (T cell response) [2, 7]: +/−
- Binding to DRB1*0401 [4]: −

Sequence: IHNPAVFTWPPWQAG [Peptide 476]
- Induction of IFN-gamma secretion in T cells / PBMC from CMV seropositive donors [1]: can induce functional, IFN-gamma secreting T cells in humans

Sequence: AETPGCVAYIGISFLDQ [Peptide 1239]
- DR4 binding [3, 5]: −

Sequence: NFAGIEAAASAIQGNV [Peptide 1238]
- DR4 binding [3, 5]: −

Sequence: LLQRGPQYSEHPTFT [Peptide 356]
- DRB1*0401 mice CD4+ (T cell response) [2, 6]: +/−
- DRB1*0401 mice total SC (T cell response) [2, 7]: +/−

Sequence: PAVFTWPPWQAGILA [Peptide 479]
- Induction of IFN-gamma secretion in T cells / PBMC from CMV seropositive donors [1]: can induce functional, IFN-gamma secreting T cells in humans

Sequence: RIFAELEGV
- Frequency in screen (number of refinding/number of donors' expressing the respective HLA type) [1]: 1/9

Sequence: QGDDDVWTSGSDSDE [Peptide 394]
- Recognition by T cells in HLA context other than described [1]: recognized by T cells in a different HLA context than known before

Sequence: NLVPMVATV [reference compound]
- Number of donors recognizing the epitope ([1]; HLA A2 donors): 9 out of 10
- Frequency in screen (number of refinding/number of donors' expressing the respective HLA type) [1]: 8/9

Sequence: LQRGPQYSEHPTFTS [Peptide 357]
- DRB1*0401 mice CD4+ (T cell response) ([2]; mouse, in vivo): +/−
- DRB1*0401 mice total SC (T cell response) ([2]; mouse, in vivo, sc): +

Sequence: GDDDVWTSGSDSDEE [Peptide 395]
- Recognition by T cells in HLA context other than described [1]: recognized by T cells in a different HLA context than known before

Sequence: VTTERKTPRVTGGGA [Peptide 411]
- Recognition by T cells in HLA context other than described [1]: recognized by T cells in a different HLA context than known before

Sequence: TPRVTGGGAMAGAST [Peptide 417]
- Recognition by T cells in HLA context other than described [1]: recognized by T cells in a different HLA context than known before

Sequence: TKMQVIGDQYVKVYL [Peptide 214]
- Induction of IFN-gamma secretion in T cells / PBMC from CMV seropositive donors [1]: can induce functional, IFN-gamma secreting T cells in humans

Sequence: RLKAESTVAPEEDTD [Peptide 455]
- Binding to DRB1 *0401 ([3]; soluble DRB1*0401 molecules): +
- DRB1*0401 mice CD4+ (T cell response) [2, 6]: +/−
- DRB1*0401 mice total SC (T cell response) [2, 7]: +/−
- Binding to DRB1*0401 [4]: −

Sequence: YYTSAFVFPTKDVAL [Peptide 181]
- Binding to DRB1 *0401 ([3]; soluble DRB1*0401 molecules): −
- DRB1*0401 mice CD4+ (T cell response) [2, 6]: +/−
- DRB1*0401 mice total SC (T cell response) [2, 7]: +

Sequence: MQVIGDQYVKVYLES [Peptide 216]
- Induction of IFN-gamma secretion in T cells / PBMC from CMV seropositive donors [1]: can induce functional, IFN-gamma secreting T cells in humans

Sequence: PFMRPHERNGFTVLC [Peptide 262]
- Recognition by T cells in HLA context other than described [1]: recognized by T cells in a different HLA context than known before

Sequence: SLILVSQYTPDSTPC [Peptide 54]
- Binding to DRB1 *0401 ([3]; soluble DRB1*0401 molecules): −
- DRB1*0401 mice CD4+ (T cell response) [2, 6]: +/−
- DRB1*0401 mice total SC (T cell response) [2, 7]: −
- Binding to DRB1*0401 [4]: −

Sequence: RQQNQWKEPDVYYTS [Peptide 170]
- Binding to DRB1*0401 [4]: −

Sequence: WDRHDEGAAQGDDDV [Peptide 385]
- Binding to DRB1 *0401 ([3]; soluble DRB1*0401 molecules): −
- DRB1*0401 mice CD4+ (T cell response) [2, 6]: −
- DRB1*0401 mice total SC (T cell response) [2, 7]: −
- Binding to DRB1*0401 [4]: −

Sequence: VSDLKSSTAVIPGYPV [Peptide 1240]
- DR4 binding [3, 5]: +

Sequence: NFLLPDAQSIQAAAAG [Peptide 1241]
- DR4 binding [3, 5]: ++

Sequence: PTFTSQYRIQGKLEY [Peptide 367]
- Binding to DRB1*0401 [4]: −

Sequence: LKAESTVAPEEDTDE [Peptide 456]
- DRB1*0401 mice CD4+ (T cell response) [2, 6]: −
- DRB1*0401 mice total SC (T cell response) [2, 7]: −

Sequence: YSEHPTFTSQYRIQG [Peptide 363]
- DRB1*0401 mice CD4+ (T cell response) ([2]; mouse, in vivo): ++
- DRB1*0401 mice total SC (T cell response) ([2]; mouse, in vivo, sc): +

Sequence: YRHTWDRHDEGAAQG [Peptide 381]
- Binding to DRB1 *0401 ([3]; soluble DRB1*0401 molecules): −
- DRB1*0401 mice CD4+ (T cell response) [2, 6]: −
- DRB1*0401 mice total SC (T cell response) [2, 7]: −

Sequence: EFFWDANDIYRIFAE [Peptide 512]
- Binding to DRB1*0401 [4]: −

Sequence: VQGQNLKYQEFFWDA [Peptide 503]
- Induction of IFN-gamma secretion in T cells / PBMC from CMV seropositive donors [1]: can induce functional, IFN-gamma secreting T cells in humans

Sequence: ATKMQVIGDQYVKVY [Peptide 213]
- Induction of IFN-gamma secretion in T cells / PBMC from CMV seropositive donors [1]: can induce functional, IFN-gamma secreting T cells in humans

Sequence: GVSTANATVYMIDSVL [Peptide 1237]
- DR4 binding [3, 5]: ++

Sequence: QGQNLKYQEFFWDAN [Peptide 504]
- Binding to DRB1 *0401 ([3]; soluble DRB1*0401 molecules): −
- DRB1*0401 mice CD4+ (T cell response) [2, 6]: −
- DRB1*0401 mice total SC (T cell response) [2, 7]: −

Sequence: ARNLVPMVATVQGQN [Peptide 493]
- Reactivity, induction of IFN-gamma secretion ([1]; donor 10736, single peptides, secondary screen (FIG. 9)): inducers of IFN-gamma secretion

Sequence: HDEGAAQGDDDVWTS [Peptide 388]
- Binding to DRB1*0401 [4]: −

Sequence: YTSAFVFPTKDVALR [Peptide 182]
- DRB1*0401 mice CD4+ (T cell response) [2, 6]: +/−
- DRB1*0401 mice total SC (T cell response) [2, 7]: +/−

Sequence: TGSGAGIAQAAAGTV [Peptide 1236]
- DR4 binding [3, 5]: +

Sequence: GQNLKYQEFFWDAND [Peptide 505]
- Binding to DRB1 *0401 ([3]; soluble DRB1*0401 molecules): −
- DRB1*0401 mice CD4+ (T cell response) [2, 6]: −
- DRB1*0401 mice total SC (T cell response) [2, 7]: +

Sequence: LEYRHTWDRHDEGAA [Peptide 379]
- Binding to DRB1*0401 [4]: −

Sequence: KYQEFFWDANDIYRI [Peptide 509]
- Binding to DRB1 *0401 [3]: −
- DRB1*0401 mice CD4+ (T cell response) ([2]; mouse, in vivo): ++
- DRB1*0401 mice total SC (T cell response) ([2]; mouse, in vivo, sc): ++

Sequence: YPKYVKQNTLKLAT [HA306-318, reference compound]
- DR4 binding [3]: ++

Sequence: KTPRVTGGGANAGAS [Peptide 416]
- Recognition by T cells in HLA context other than described [1]: recognized by T cells in a different HLA context than known before

Sequence: QNQWKEPDVYYTSAF [Peptide 172]
- Binding to DRB1*0401 [4]: −
